Experimental data taken from ChEMBL document CHEMBL3608207, “Synthesis, characterization, evaluation and molecular dynamics studies of 5, 6-diphenyl-1,2,4-triazin-3(2H)-one derivatives bearing 5-substituted 1,3,4-oxadiazole as potential anti-inflammatory and analgesic agents” (Eur J Med Chem, 2015).

Key:
Rattus norvegicus [1] = test: Anti-inflammatory activity in rat model of acute inflammation assessed as inhibition of carrageenan-induced paw oedema dosed at 10 mg/kg, po dosed 1 hr before carrageenan injection and measured 5 hrs after carrageenan injection; type: functional
Rattus norvegicus [2] = test: Anti-inflammatory activity in rat model of acute inflammation assessed as inhibition of carrageenan-induced paw oedema dosed at 10 mg/kg, po dosed 1 hr before carrageenan injection and measured 6 hrs after carrageenan injection; type: functional
Rattus norvegicus [3] = test: Renal toxicity in rat Freund's adjuvant induced arthritis model of chronic inflammation assessed as assessed as total albumin level at 10 mg/kg, po dosed after 14 days from day of adjuvant injection until day 21 and measured on day 21 (reference value: 1.77 +/- 0.12 g/dL); type: organism-based; settings: in vivo, 336 h
[4] = In-vitro antiinflammatory activity assessed as inhibition of denaturation of bovine serum albumin at 10 mg; type: functional
Rattus norvegicus [5] = test: Renal toxicity in rat Freund's adjuvant induced arthritis model of chronic inflammation assessed as assessed as histological changes at 10 mg/kg, po dosed after 14 days from day of adjuvant injection until day 21 and measured on day 21 by hematoxylin and eosin staining based microscopy; type: organism-based; settings: in vivo, 336 h
Rattus norvegicus [6] = test: Hepato-toxicity in rat Freund's adjuvant induced arthritis model of chronic inflammation assessed as assessed as alkaline phosphatase level at 10 mg/kg, po dosed after 14 days from day of adjuvant injection until day 21 and measured on day 21 (reference value: 17.82 +/- 1.2 U); type: organism-based; settings: in vivo, 336 h
Rattus norvegicus [7] = test: Anti-inflammatory activity in rat model of acute inflammation assessed as inhibition of carrageenan-induced paw oedema dosed at 10 mg/kg, po dosed 1 hr before carrageenan injection and measured 3 hrs after carrageenan injection; type: functional
Rattus norvegicus [8] = test: Anti-inflammatory activity in rat Freund's adjuvant induced arthritis model of chronic inflammation assessed as inhibition of right hind paw swelling at 10 mg/kg, po dosed after 14 days from day of adjuvant injection until day 21 and measured on day 18; type: functional
Rattus norvegicus [9] = test: Anti-inflammatory activity in rat model of acute inflammation assessed as inhibition of carrageenan-induced paw oedema dosed at 10 mg/kg, po dosed 1 hr before carrageenan injection and measured 1 hr after carrageenan injection; type: functional
Mus musculus [10] = test: Analgesic activity in Swiss albino mouse assessed as reduction in number of writhing episodes at 10 mg/kg, po measured 30 mins following acetic acid injection; type: functional; settings: 0.5 h
Mus musculus [11] = test: Analgesic activity in Swiss albino mouse assessed as reduction in formalin-induced paw licking by measuring time spent on licking during phase-1 at 10 mg/kg, po dosed 1 hr before formalin challenge and measured 30 mins after formalin injection; type: functional
Rattus norvegicus [12] = test: Gastro-intestinal toxicity in rat Freund's adjuvant induced arthritis model of chronic inflammation assessed as assessed as histological changes at 10 mg/kg, po dosed after 14 days from day of adjuvant injection until day 21 and measured on day 21 by hematoxylin and eosin staining based microscopy; type: organism-based; settings: in vivo, 336 h
Rattus norvegicus [13] = test: Anti-inflammatory activity in rat Freund's adjuvant induced arthritis model of chronic inflammation assessed as inhibition of right hind paw swelling at 10 mg/kg, po dosed after 14 days from day of adjuvant injection until day 21 and measured on day 6; type: functional
Rattus norvegicus [14] = test: Renal toxicity in rat Freund's adjuvant induced arthritis model of chronic inflammation assessed as assessed as creatinine level at 10 mg/kg, po dosed after 14 days from day of adjuvant injection until day 21 and measured on day 21 (reference value: 0.62 +/- 0.049 mg/dL); type: organism-based; settings: in vivo, 336 h
Rattus norvegicus [15] = test: Anti-inflammatory activity in rat Freund's adjuvant induced arthritis model of chronic inflammation assessed as inhibition of right hind paw swelling at 10 mg/kg, po dosed after 14 days from day of adjuvant injection until day 21 and measured on day 3; type: functional
Rattus norvegicus [16] = test: Anti-inflammatory activity in rat Freund's adjuvant induced arthritis model of chronic inflammation assessed as inhibition of right hind paw swelling at 10 mg/kg, po dosed after 14 days from day of adjuvant injection until day 21 and measured on day 15; type: functional
Rattus norvegicus [17] = test: Anti-inflammatory activity in rat assessed as inhibition of arachidonic acid-induced paw edema at 10 mg/kg, po dosed 30 mins before arachidonic acid injection and measured 1 hr after arachidonic acid injection; type: functional
Rattus norvegicus [18] = test: Renal toxicity in rat Freund's adjuvant induced arthritis model of chronic inflammation assessed as assessed as total protein level at 10 mg/kg, po dosed after 14 days from day of adjuvant injection until day 21 and measured on day 21 (reference value: 1.78 +/- 0.11 g/dL); type: organism-based; settings: in vivo, 336 h
Rattus norvegicus [19] = test: Gastro-intestinal toxicity in rat Freund's adjuvant induced arthritis model of chronic inflammation assessed as ulcer index at 10 mg/kg, po dosed after 14 days from day of adjuvant injection until day 21 and measured on day 21; type: organism-based; settings: in vivo, 336 h
Rattus norvegicus [20] = test: Anti-inflammatory activity in rat Freund's adjuvant induced arthritis model of chronic inflammation assessed as inhibition of right hind paw swelling at 10 mg/kg, po dosed after 14 days from day of adjuvant injection until day 21 and measured on day 12; type: functional
Mus musculus [21] = test: Analgesic activity in Swiss albino mouse assessed as reduction in formalin-induced paw licking by measuring time spent on licking during phase-2 at 10 mg/kg, po dosed 1 hr before formalin challenge and measured 30 mins after formalin injection; type: functional
Rattus norvegicus [22] = test: Hepato-toxicity in rat Freund's adjuvant induced arthritis model of chronic inflammation assessed as assessed as SGOT level at 10 mg/kg, po dosed after 14 days from day of adjuvant injection until day 21 and measured on day 21 (reference value: 92.48 +/- 7.8 U/mL); type: organism-based; settings: in vivo, 336 h
Rattus norvegicus [23] = test: Anti-inflammatory activity in rat Freund's adjuvant induced arthritis model of chronic inflammation assessed as inhibition of right hind paw swelling at 10 mg/kg, po dosed after 14 days from day of adjuvant injection until day 21 and measured on day 21; type: functional
Rattus norvegicus [24] = test: Anti-inflammatory activity in rat Freund's adjuvant induced arthritis model of chronic inflammation assessed as inhibition of right hind paw swelling at 10 mg/kg, po dosed after 14 days from day of adjuvant injection until day 21 and measured on day 9; type: functional
Rattus norvegicus [25] = test: Hepato-toxicity in rat Freund's adjuvant induced arthritis model of chronic inflammation assessed as assessed as histological changes at 10 mg/kg, po dosed after 14 days from day of adjuvant injection until day 21 and measured on day 21 by hematoxylin and eosin staining based microscopy; type: organism-based; settings: in vivo, 336 h
Rattus norvegicus [26] = test: Hepato-toxicity in rat Freund's adjuvant induced arthritis model of chronic inflammation assessed as assessed as SGPT level at 10 mg/kg, po dosed after 14 days from day of adjuvant injection until day 21 and measured on day 21 (reference value: 34.23 +/- 2.5 U/mL); type: organism-based; settings: in vivo, 336 h
Rattus norvegicus [27] = test: Anti-inflammatory activity in rat model of acute inflammation assessed as inhibition of carrageenan-induced paw oedema dosed at 10 mg/kg, po dosed 1 hr before carrageenan injection and measured 2 hrs after carrageenan injection; type: functional
Rattus norvegicus [28] = test: Anti-inflammatory activity in rat model of acute inflammation assessed as inhibition of carrageenan-induced paw oedema dosed at 10 mg/kg, po dosed 1 hr before carrageenan injection and measured 4 hrs after carrageenan injection; type: functional
Rattus norvegicus [29] = test: Renal toxicity in rat Freund's adjuvant induced arthritis model of chronic inflammation assessed as assessed as blood urea nitrogen level at 10 mg/kg, po dosed after 14 days from day of adjuvant injection until day 21 and measured on day 21 (reference value: 23.48 +/- 1.8 mg/dL); type: organism-based; settings: in vivo, 336 h

COc1ccc2c(c1)c(CC(=O)O)c(C)n2C(=O)c1ccc(Cl)cc1 [INDOMETHACIN]
inhibition in vivo at 10 mg/kg (Rattus norvegicus [1]): 62.6%
inhibition in vivo at 10 mg/kg (Rattus norvegicus [2]): 57.8%
Activity (Rattus norvegicus [3]): 2.08 g/dL
inhibition [4]: 84.9%
Activity (Rattus norvegicus [5]): Toxic
Activity (Rattus norvegicus [6]): 26.24 U
inhibition in vivo at 10 mg/kg (Rattus norvegicus [7]): 60.5%
inhibition in vivo at 10 mg/kg (Rattus norvegicus [8]): 54.2%
inhibition in vivo at 10 mg/kg (Rattus norvegicus [9]): 57.6%
inhibition in vivo at 10 mg/kg (Mus musculus [10]): 77.3%
inhibition in vivo at 10 mg/kg (Mus musculus [11]): 15.6%
Activity (Rattus norvegicus [12]): Toxic
inhibition in vivo at 10 mg/kg (Rattus norvegicus [13]): 39.7%
Activity (Rattus norvegicus [14]): 1.84 mg/dL
inhibition in vivo at 10 mg/kg (Rattus norvegicus [15]): 33.1%
inhibition in vivo at 10 mg/kg (Rattus norvegicus [16]): 51.3%
inhibition in vivo at 10 mg/kg (Rattus norvegicus [17]): 21.1%
Activity (Rattus norvegicus [18]): 2.24 g/dL
UI (Rattus norvegicus [19]): 52
inhibition in vivo at 10 mg/kg (Rattus norvegicus [20]): 45.9%
inhibition in vivo at 10 mg/kg (Mus musculus [21]): 82.2%
Activity (Rattus norvegicus [22]): 121.56 U/ml
inhibition in vivo at 10 mg/kg (Rattus norvegicus [23]): 56.8%
inhibition in vivo at 10 mg/kg (Rattus norvegicus [24]): 42.4%
Activity (Rattus norvegicus [25]): Toxic
Activity (Rattus norvegicus [26]): 52.83 U/ml
inhibition in vivo at 10 mg/kg (Rattus norvegicus [27]): 59.5%
inhibition in vivo at 10 mg/kg (Rattus norvegicus [28]): 60%
Activity (Rattus norvegicus [29]): 62.74 mg/dL
